Values joined by “and” are separate entries in the source; they are usually repeats but may differ in a detail not shown here. Equal entries are not always repeated.
Assays:
[1] = test system: eyelashes of subjects with idiopathic hypotrichosis; assay: GEA / ESQ Domain 2 responder analysis, 1-year clinical study, idiopathic hypotrichosis; assay type: in vivo, human
Text: A one-year, multicenter, randomized, double-masked, vehicle-controlled study. Adult post-chemotherapy and idiopathic eyelash hypotrichosis subjects were enrolled based on their score of 1 or 2 on a four point ordinal Global Eyelash Assessment (GEA) scale, and in addition having a low score on a PRO measure associated with 'psychological impact' of the condition, a domain-2 of the Eyelash Satisfaction Questionnaire (ESQ). The study involved two treatment periods of six months each. In the first treatment period, subjects for both populations were randomized 3:1 for QD bimatoprost: vehicle treatment. In the second 6-month treatment period, all subjects were moved to bimatoprost treatment, except for a group of bimatoprost treated idiopathic hypotrichosis subjects (n=55) who were switched to vehicle to investigate the effect of drug discontinuation. The study included 9 visits over the 12-month treatment period. The primary end point was the proportion of responders within each treatment group based on a composite measure of GEA and ESQ Domain-2 (investigator assessed eyelash prominence and subject's assessment of 'psychological impact' related to eyelashes) at month-4. This multicenter, double-masked, randomized, parallel-group study included two 6-month treatment periods. Subjects with idiopathic hypotrichosis were randomized to 3 treatment groups: 1) treatment period 1 (TP1) and TP2: bimatoprost; 2) TP1: bimatoprost; TP2: vehicle; and 3) TP1: vehicle; TP2: bimatoprost. Subjects with chemotherapy-induced hypotrichosis were randomized to 2 treatment groups: 1) TP1: bimatoprost or vehicle; and 2) TP2: bimatoprost. The primary endpoint was a composite of at least a 1-grade improvement in investigator-assessed Global Eyelash Assessment (GEA), and at least a 3-point improvement in subject-reported Eyelash Satisfaction Questionnaire (ESQ) Domain 2 (self-perceived confidence, attractiveness, and professionalism) at month 4. Secondary measures included digitally assessed eyelash characteristics (i.e., eyelash length, fullness, and darkness). Idiopathic hypotrichosis subjects were randomized to 3 treatment arms in a 2:1:1 ratio: bimatoprost during both treatment periods; vehicle in TP1 and bimatoprost in TP2; and bimatoprost in TP1 and vehicle in TP2. Chemotherapy-induced hypotrichosis subjects were randomized in a 3:1 ratio to receive bimatoprost during both treatment periods or vehicle in TP1 followed by bimatoprost in TP2. Male or female subjects at least 18 years of age who met these criteria were eligible for inclusion in the study: a score of 1 or 2 on the clinician-graded global eyelash assessment (“GEA”); a score of 1 (very much disagree) or 2 (disagree) on each of 3 items (16 [confidence], 19 [attractiveness], and 18 [professionalism]) on the subject-assessed eyelash satisfaction questionnaire (“esq”); best-corrected visual acuity (“bcva”) score equivalent to a […] acuity of 20/100 or better in each eye; and intraocular pressure (“iop”) 20 mm hg or less in each eye. Subjects in the chemotherapy-induced hypotrichosis population also met the following inclusion criteria: inadequate eyelashes after completing chemotherapy; treatment for solid tumor type stage 1, 2, or 3a cancer; last chemotherapy treatment at least 4 to less than 16 weeks prior to baseline; and considered free of cancer. Key exclusion criteria included subjects with any eye disease or abnormality or a history of eye surgery. Subjects placed 1 drop of study treatment (i.e., bimatoprost 0.03% or vehicle) onto a sterile single-use-per eye applicator and applied it to the upper eyelid margin of 1 eye; a second applicator was used for the contralateral eye. Treatment was applied once daily in the evening throughout the study. […]

[2] = Safety (adverse events, IOP), idiopathic hypotrichosis subpopulation; assay type: in vivo, human
Description: Safety measures included adverse events (AEs), ophthalmic examination (ophthalmoscopy [dilated], biomicroscopy, IOP, iris color assessment, and BCVA). AEs were monitored throughout the study by the investigator.
The 12-month data were the primary focus of the safety evaluation. Safety data were summarized with descriptive statistics (n, or frequency distributions [counts or percentages]). Biomicroscopic examinations and assessments of iris color, IOP, and BCVA were performed for each subject at screening/baseline and months 1, 2, 4, 6, 8, and 12 (or early termination prior to month 12); ophthalmoscopic examinations (dilated) were performed at screening/baseline and months 6 and 12 (or early termination prior to month 12). Two IOP measurements were taken for each eye at each visit; a third measurement was taken if the difference between the first 2 measurements was more than 2 mm Hg. The average or median IOP was determined in the event that 2 or 3 measurements were made, respectively. The IOP value analyzed at each visit was the average IOP of the subject's 2 eyes. Change and percent change from baseline in IOP were summarized by descriptive statistics. Between-group comparison will be performed using the 1-way analysis of variance.

[3] = Bim/Veh group (n = 60), Month 1 (on bimatoprost)
[4] = Bim/Veh group (n = 60), Month 2 (on bimatoprost)
[5] = Bim/Veh group (n = 60), Month 4 (on bimatoprost)
[6] = Bim/Veh group (n = 60), Month 6 (on bimatoprost)
[7] = Bim/Veh group (n = 60), Month 7 (vehicle since month 6)
[8] = Bim/Veh group (n = 60), Month 8 (vehicle since month 6)
[9] = Bim/Veh group (n = 60), Month 10 (vehicle since month 6)
[10] = Bim/Veh group (n = 60), Month 12 (vehicle since month 6)
[11] = Month 4, all bimatoprost TP1 (n = 179)
[12] = Month 6, all bimatoprost TP1 (n = 179)

CCNC(=O)CCC/C=C\C[C@@H]1[C@@H](/C=C/[C@@H](O)CCc2ccccc2)[C@H](O)C[C@@H]1O [Bim 0.03%, bimatoprost]
Primary composite endpoint responders (≧1-grade GEA and ≧3-point ESQ Domain 2 improvement) [1, 3]: 0.0% | ≧1-Grade Improvement From Baseline GEA Score [1, 3]: 10.0% | ≧2-Grade Improvement From Baseline GEA Score [1, 3]: 0.0% | ≧3-Point Improvement From Baseline ESQ Domain 2 Score [1, 3]: 13.3% | Primary composite endpoint responders (≧1-grade GEA and ≧3-point ESQ Domain 2 improvement) [1, 4]: 13.3% | ≧1-Grade Improvement From Baseline GEA Score [1, 4]: 40.0% | ≧2-Grade Improvement From Baseline GEA Score [1, 4]: 3.3% | ≧3-Point Improvement From Baseline ESQ Domain 2 Score [1, 4]: 25.0% | Primary composite endpoint responders (≧1-grade GEA and ≧3-point ESQ Domain 2 improvement) [1, 5]: 41.7% | ≧1-Grade Improvement From Baseline GEA Score [1, 5]: 71.7% | ≧2-Grade Improvement From Baseline GEA Score [1, 5]: 25.0% | ≧3-Point Improvement From Baseline ESQ Domain 2 Score [1, 5]: 48.3% | Primary composite endpoint responders (≧1-grade GEA and ≧3-point ESQ Domain 2 improvement) [1, 6]: 48.3% | ≧1-Grade Improvement From Baseline GEA Score [1, 6]: 76.7% | ≧2-Grade Improvement From Baseline GEA Score [1, 6]: 30.0% | ≧3-Point Improvement From Baseline ESQ Domain 2 Score [1, 6]: 56.7% | Primary composite endpoint responders (≧1-grade GEA and ≧3-point ESQ Domain 2 improvement) [1, 7]: 51.7% | ≧1-Grade Improvement From Baseline GEA Score [1, 7]: 78.3% | ≧2-Grade Improvement From Baseline GEA Score [1, 7]: 30.0% | ≧3-Point Improvement From Baseline ESQ Domain 2 Score [1, 7]: 56.7% | Primary composite endpoint responders (≧1-grade GEA and ≧3-point ESQ Domain 2 improvement) [1, 8]: 50.0% | ≧1-Grade Improvement From Baseline GEA Score [1, 8]: 78.3% | ≧2-Grade Improvement From Baseline GEA Score [1, 8]: 28.3% | ≧3-Point Improvement From Baseline ESQ Domain 2 Score [1, 8]: 55.0% | Primary composite endpoint responders (≧1-grade GEA and ≧3-point ESQ Domain 2 improvement) [1, 9]: 20.0% | ≧1-Grade Improvement From Baseline GEA Score [1, 9]: 46.7% | ≧2-Grade Improvement From Baseline GEA Score [1, 9]: 8.3% | ≧3-Point Improvement From Baseline ESQ Domain 2 Score [1, 9]: 43.3% | Primary composite endpoint responders (≧1-grade GEA and ≧3-point ESQ Domain 2 improvement) [1, 10]: 11.7% | ≧1-Grade Improvement From Baseline GEA Score [1, 10]: 35.0% | ≧2-Grade Improvement From Baseline GEA Score [1, 10]: 5.0% | ≧3-Point Improvement From Baseline ESQ Domain 2 Score [1, 10]: 38.3% | Primary composite endpoint responders (≧1-grade GEA and ≧3-point ESQ Domain 2 improvement) [1, 11]: 40.2% | Responders with ≧1-grade increase in GEA score [1, 11]: 74.3% | Responders with ≧2-grade increase in GEA score [1, 11]: 25.7% | Responders with ≧3-point increase in ESQ Domain 2 [1, 11]: 47.5% | Responders with ≧1-grade increase in GEA score ([1]; Month 4, all bimatoprost TP1 (n = 179), listed as Bimatoprost): 74.3% | Responders with ≧1-grade increase in GEA score ([1]; Month 4, all bimatoprost TP1 (n = 179), listed as bimatoprost): 74.3% and > 70% | Primary composite endpoint responders (≧1-grade GEA and ≧3-point ESQ Domain 2 improvement) [1, 12]: 47.5% | Responders with ≧1-grade increase in GEA score [1, 12]: 77.7% | Responders with ≧2-grade increase in GEA score [1, 12]: 30.7% | Responders with ≧3-point increase in ESQ Domain 2 [1, 12]: 55.9% | Time efficacy was maintained after drug discontinuation ([1]; bimatoprost 6 months then vehicle): about 2 months | Conjunctival hyperaemia ([2]; 0 to 6 Months (N = 118)): 5.9% | Erythema of eyelid ([2]; 0 to 6 Months (N = 118)): 1.7% | Eye pruritus ([2]; 0 to 6 Months (N = 118)): 0.8% | Eyelids pruritus ([2]; 0 to 6 Months (N = 118)): 5.1% | Punctate keratitis ([2]; 0 to 6 Months (N = 118)): 2.5% | Skin hyperpigmentation ([2]; 0 to 6 Months (N = 118)): 0.0% | Conjunctival hyperaemia ([2]; 0 to 12 Months (N = 118)): 8.5% | Erythema of eyelid ([2]; 0 to 12 Months (N = 118)): 5.1% | Eye pruritus ([2]; 0 to 12 Months (N = 118)): 0.8% | Eyelids pruritus ([2]; 0 to 12 Months (N = 118)): 5.9% | Punctate keratitis ([2]; 0 to 12 Months (N = 118)): 2.5% | Skin hyperpigmentation ([2]; 0 to 12 Months (N = 118)): 1.7% | Conjunctival hyperaemia ([2]; 6 to 12 Months (N = 106)): 3.8% | Erythema of eyelid ([2]; 6 to 12 Months (N = 106)): 4.7% | Eye pruritus ([2]; 6 to 12 Months (N = 106)): 0.0% | Eyelids pruritus ([2]; 6 to 12 Months (N = 106)): 0.9% | Punctate keratitis ([2]; 6 to 12 Months (N = 106)): 0.0% | Skin hyperpigmentation ([2]; 6 to 12 Months (N = 106)): 1.9% | Mean change from baseline in IOP ([2]; month 4, IOP measured in mm Hg): −1.17

From US9216183B2, “Topical treatment for chemotherapy induced eyelash loss or hypotrichosis using prostamide F2 alpha agonists” (ALLERGAN, INC., priority 2002, dated 2015)
